ChEMBL document CHEMBL1147821, “P3 and P4 position analysis of vinyl ester pseudopeptide proteasome inhibitors” (Bioorg Med Chem Lett, 2006)

Each molecule was assayed against T1, Proteasome Macropain subunit MB1 (Homo sapiens, UniProt P28074).
T1 sequence (P28074 whole entry): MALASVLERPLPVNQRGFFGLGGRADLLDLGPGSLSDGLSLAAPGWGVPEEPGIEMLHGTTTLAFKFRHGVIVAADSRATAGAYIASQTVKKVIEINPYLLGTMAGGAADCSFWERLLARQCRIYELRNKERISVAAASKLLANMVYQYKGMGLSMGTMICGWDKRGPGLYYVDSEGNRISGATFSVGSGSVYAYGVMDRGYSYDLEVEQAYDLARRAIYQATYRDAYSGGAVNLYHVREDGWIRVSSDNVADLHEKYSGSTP
Description: Inhibition of chymotrypsin like activity of proteasome

SMILES	IC50 [µM]
CC(C)C[C@@H](/C=C/S(C)(=O)=O)NC(=O)[C@H](CC(C)C)NC(=O)[C@H](CC(C)C)NC(=O)OCc1ccccc1	0.061
CCOC(=O)/C=C/[C@H](CC(C)C)NC(=O)[C@H](CCC(N)=O)NC(=O)[C@@H](NC(=O)[C@@H](N)Cc1ccc(O)cc1)C(C)C	4.32
CCOC(=O)/C=C/[C@H](CC(C)C)NC(=O)[C@H](CCC(N)=O)NC(=O)[C@H](Cc1ccccc1)NC(=O)c1cccc(O)c1C	2.23

Further lines, results first:

IC50 [µM]	SMILES
6.67	CCOC(=O)/C=C/[C@H](CC(C)C)NC(=O)[C@H](CCC(N)=O)NC(=O)[C@@H](NC(=O)c1cccc(O)c1C)C(C)C
4.15	CCOC(=O)/C=C/[C@H](CC(C)C)NC(=O)[C@H](CCC(N)=O)NC(=O)[C@@H](NC(=O)[C@@H](N)Cc1ccccc1)C(C)C
